From US20130273181A1, “METHODS AND COMPOSITIONS FOR DIAGNOSING AND TREATING MUSCLE MYOPATHY DISORDERS” (The Regents of the University of Colorado, a body Corporate, priority 2012, published 2013)
Entries after “also recorded” stand apart in the source; their conditions may differ.

Key:
RyR1 [1] = molecular target: T1, RyR1 (Mus musculus, UniProt E9PZQ0); assay: Calcium transient measurements (Fluo-3) in cultured myotubes in response to RyR1 agonist; type: cell-based; conditions: 4-CmC 0.5 mM, normal myotubes
T1 construct: produced substantial Ca^2+ release in both normal and Ryr1^m1Nisw/m1Nisw myotubes; endogenous in cells; host or cells: cultured myotubes from locomotor-normal mouse embryos
Source text: (§1) RyR1 functions as a muscle isotype of ryanodine receptors that is mechanically activated by Dihydropyridine receptor (hereinafter “DHPR”) to release Ca^2+ from the sarcoplasmic reticulum (hereinafter SR), thus evoking excitation-contraction coupling (hereinafter E-C coupling). In some exemplary methods, whole-cell clamping in combination with a fluorescent Ca^2+ indicator, such as Fluo-3 AM, was used to study the E-C coupling function of RyR1^m1Nisw mutant protein in cultured myotubes. […] Addition of the RyR1 agonist, 4-chloro-m-cresol (4-CmC; 0.5 mM), produced substantial Ca^2+ release in both normal and Ryr1^m1Nisw/m1Nisw myotubes (peak ΔF/F of 1.4±0.1; n=5 vs. 1.2±0.1; n=3, respectively; p>0.05; FIG. 2d, e), compared to Ryr1^tm1Alle/tm1Alle null myotubes (ΔF/F 0.1±0.0; n=6; FIG. 2e). […] However, the rate of SR Ca^2+ release in response to 4-CmC was much slower in Ryr1^m1Nisw/m1Nisw versus normal myotubes (t1/2act=6.5±2.4 vs. 2.2±0.6 s, respectively; p<0.01; FIG. 2d). […] Under controlled physiological conditions, RyR1^m1Nisw/m1Nisw protein may be non-functional compared to wild type RyR1 in skeletal muscle.
(§2) FIG. 2a provides representative recordings of myoplasmic Ca^2+ transients elicited by 50-ms depolarizations from −50 mV to the indicated test potentials for locomotor normal myotubes (left; L. Normal) and Ryr1^m1Nisw/m1Nisw myotubes (right). […] FIG. 2c represents an exemplary histogram illustrating fractions of myotubes that contracted in response to a 100 V, 10 ms electrical stimulus for normal myotubes (black bar), Ryr1^m1Nisw/m1Nisw myotubes, and Ryr1^m1Nisw/m1Nisw myotubes transfected with YFP-tagged wild type RyR1 (RyR1-YFP, grey bar). The total number of myotubes tested is indicated above each bar. The defect of contraction observed in Ryr1^m1Nisw/m1Nisw myotubes (0%) was restored to 50-60% by expression of RyR1-YFP compared to the normal myotubes (90%). […] FIG. 2e represents an exemplary histogram of half-rise time of Ca^2+ transients in response to 4-CmC observed in normal (blackzbar), Ryr1^m1Nisw/m1Nisw (grey bar) and RyR1^tm1Alle/tm1Alle (white bar) myotubes. Error bars represent±SEM. An asterisk indicates a significant difference (p=0.006; t-test). The total number of myotubes tested is indicated above each bar.
(§3) Intracellular Ca^2+ was recorded with Fluo-3 (Invitrogen) at a final concentration of 200 μM that was injected by whole cell configuration, a waiting period of >5 min was used to allow the dye to diffuse into the cell interior. The total change in fluorescence (ΔF/F) was determined from the change in peak fluorescence from initial baseline during stimulation and F was the fluorescence immediately before the test pulse minus the measured average background (non Fluo-3) fluorescence before dye entry. For normal myotubes, average values of fluorescence change (ΔF) for each test potential (V) were fitted according to: (ΔF)=(ΔF)max/{1+exp[(VF−V)/kF]}, where (ΔF)max=1093 au, VF=−1.4 mV and kF=5.5 mV. Fluorescence emission was measured by fluorometer. Ryr1 cDNA was provided by Kurt Beam and Roger Bannister assisted in these experiments.

RyR1 [2] = molecular target: T2, RyR1 (Mus musculus, UniProt E9PZQ0, E4242G); assay: as above; type: cell-based; conditions: 4-CmC 0.5 mM, Ryr1^m1Nisw/m1Nisw myotubes
T2 construct: produced substantial Ca^2+ release in both normal and Ryr1^m1Nisw/m1Nisw myotubes; endogenous in cells; host or cells: cultured myotubes from locomotor-normal mouse embryos
Source text: as §1, §2, §3

RyR1 [3] = assay: as above; type: cell-based, mouse; conditions: 4-CmC; Ryr1^tm1Alle/tm1Alle null myotubes; n=6
Source text: as §1, §2, §3

Ryr1^m1Nisw/+ mice [4] = assay: Grip strength test (vertical digital push-pull strain gauge); type: in vivo, mouse; conditions: 2 month old, four weeks of diet, Enalapril in water, or Glyburide 15 mg/kg/day oral gavage
Ryr1^m1Nisw/+ mice [5] = assay: Hanging wire task (upper body muscle strength); type: in vivo, mouse; conditions: four weeks of diet, Enalapril in water, or Glyburide 15 mg/kg/day oral gavage
[6] = tested on: Ryr1^m1Nisw/+ vastus lateralis muscle; assay: Muscle histology (H&E central nuclei, COX staining) of vastus lateralis; type: in vivo, mouse; conditions: after four weeks treatment
Source text: CCD is diagnosed and subclassified by histopathological analysis using stains such as cytochrome oxidase (COX) and nicotinamide adenine dinucleotide hydride-tetrazolium reductase (NADH-TR) which highlight mitochondria and ATP synthesis, and hematoxylin and eosin stain (H&E) to mark nuclei. In normal muscle, nuclei are located at the periphery of the myofiber and the mitochondria reside throughout the myofiber. Muscle biopsies of CCD patients show centrally located nuclei, as well as disorganized areas in the center of the myofiber called cores that lack mitochondria and are devoid of metabolic activity; these occur in some but not all muscles and are reflective of cellular damage.
Pathological examination is the hallmark diagnosis of CCD. In one exemplary method, the effects of diet on muscle histology were studied. Centrally located nuclei and decreased mitochondrial activity were detected in Ryr1^m1Nisw/+ vastus lateralis muscle compared to Ryr1^+/+ muscle in low potassium and control diets (FIGS. 5c-5k). […] In addition, the CCD phenotype was also rescued by 5-hydrodecanoic acid (5HA), which blocks ATP-sensitive K^+ channels (FIG. 4 and Table 2). […]

[7] = tested on: Ryr1^m1Nisw/m1Nisw E18.5 diaphragm muscle; assay: EMG recordings / contractility of explanted E18.5 diaphragm muscle; type: cell-based, mouse
Description: (§4) In other methods, whether increasing the excitability in E18.5 Ryr1^m1Nisw/m1Nisw whole diaphragm muscle could force the DHPR-RyR1 complex to initiate contractility was examined. In one exemplary method, electromyography recordings (EMG) was performed to examine whether whole muscle in vitro was sensitive to potassium-dependent depolarization by adding potassium to the bath to depolarize the membrane. […] Potassium induced excitability can also be triggered by blocking inward rectifier potassium channels.
DHPR and RyR1 interact through orthograde and retrograde signaling, but the Ryr1^m1Nisw/m1Nisw mutation is not located within this interaction region. Orthograde signaling from DHPR opens the RyR1 channel in the SR, while retrograde signaling from RyR1 controls the gating of DHPR.
FIG. 2g represents an exemplary graph of contractility of E18.5 diaphragm muscle from Ryr1^+/+, Ryr1^m1Nisw/m1Nisw, or RyR1^tm1Alle/tm1Alle embryos. After equilibration, all samples were bathed first in 6 mM KCl, followed by wash out and then addition of 100 μm BaCl as indicated. […] FIG. 2h provides an exemplary graph of contractility of E18.5 diaphragm muscle from Ryr1^+/+, Ryr1^m1Nisw/m1Nisw and RyR1^tm1Alle/tm1Alle embryos in 6 mM potassium gluconate (n=4).
(§5) In myotubes, the application of ryanodine at levels that activate RyR increases ERK1/2 protein levels and c-Fos and c-Jun transcript levels. ERK1/2 phosphorylates the most abundant potassium transport protein, Na^+, K^+-ATPase, which, in turn, induces an increase in ion transport. Na^+, K^+-ATPase is essential for maintaining the equilibrium potential of Na^+ and K^+ at the membrane. In one exemplary method, western blot was performed to analyze certain protein levels in Ryr1^m1Nisw/m1Nisw and Ryr1^tm1Alle/tm1Alle embryonic muscle extracts with beta-tubulin served as a loading control. […] In another exemplary method, Phorbol-12-myristate-13-acetate (PMA 50 nM), an activator of ERK1/2 phosphorylation, was applied to the bath of in vitro Ryr1^m1Nisw/m1Nisw diaphragm preparation to increase the phosphorylation of Na^+, K^+-ATPase.
(§6) In certain exemplary methods, restoration of membrane potential and muscle contractions by pharmacological stimulation was tested. First, effect of stimulation of AMPK activity on restoring the resting membrane potential of the mutant diaphragm muscle was determined. An AMPK activator, e.g. 5-aminoimidazole-4-carboxamide-1-β-d-ribofuranoside (AICAR, 500 μM), was bath applied to explanted Ryr1^m1Nisw/m1Nisw E18.5 diaphragm muscles. […] Next, other pharmacological stimuli were examined. […] Glibenclamide (2 μM) and 5-hydrodecanoic acid (5HA, 200 μM) selectively bind to SUR1 and SUR2 to block ATP-sensitive K^+ channels.

[8] = tested on: Ryr1^m1Nisw/m1Nisw diaphragm muscle; assay: Sharp electrode recordings of resting membrane potential of diaphragm muscle; type: cell-based, mouse; conditions: Glibenclamide 2 μM; PMA 50 nM; AICAR 500 μM
Description: Therefore, in some exemplary methods, whether voltage dependent orthograde signaling through the DHPR-RyR1 complex could be initiated through changes in membrane potential was first assessed.
as §4, §5, §6

soleus muscle = assay: Steady-state membrane potential (VREST) of two month old soleus muscle at varied extracellular potassium; type: cell-based, mouse; conditions: bumetanide 75 μM, BaCl2 50 μM

T2 sequence (E9PZQ0 whole entry E4242G): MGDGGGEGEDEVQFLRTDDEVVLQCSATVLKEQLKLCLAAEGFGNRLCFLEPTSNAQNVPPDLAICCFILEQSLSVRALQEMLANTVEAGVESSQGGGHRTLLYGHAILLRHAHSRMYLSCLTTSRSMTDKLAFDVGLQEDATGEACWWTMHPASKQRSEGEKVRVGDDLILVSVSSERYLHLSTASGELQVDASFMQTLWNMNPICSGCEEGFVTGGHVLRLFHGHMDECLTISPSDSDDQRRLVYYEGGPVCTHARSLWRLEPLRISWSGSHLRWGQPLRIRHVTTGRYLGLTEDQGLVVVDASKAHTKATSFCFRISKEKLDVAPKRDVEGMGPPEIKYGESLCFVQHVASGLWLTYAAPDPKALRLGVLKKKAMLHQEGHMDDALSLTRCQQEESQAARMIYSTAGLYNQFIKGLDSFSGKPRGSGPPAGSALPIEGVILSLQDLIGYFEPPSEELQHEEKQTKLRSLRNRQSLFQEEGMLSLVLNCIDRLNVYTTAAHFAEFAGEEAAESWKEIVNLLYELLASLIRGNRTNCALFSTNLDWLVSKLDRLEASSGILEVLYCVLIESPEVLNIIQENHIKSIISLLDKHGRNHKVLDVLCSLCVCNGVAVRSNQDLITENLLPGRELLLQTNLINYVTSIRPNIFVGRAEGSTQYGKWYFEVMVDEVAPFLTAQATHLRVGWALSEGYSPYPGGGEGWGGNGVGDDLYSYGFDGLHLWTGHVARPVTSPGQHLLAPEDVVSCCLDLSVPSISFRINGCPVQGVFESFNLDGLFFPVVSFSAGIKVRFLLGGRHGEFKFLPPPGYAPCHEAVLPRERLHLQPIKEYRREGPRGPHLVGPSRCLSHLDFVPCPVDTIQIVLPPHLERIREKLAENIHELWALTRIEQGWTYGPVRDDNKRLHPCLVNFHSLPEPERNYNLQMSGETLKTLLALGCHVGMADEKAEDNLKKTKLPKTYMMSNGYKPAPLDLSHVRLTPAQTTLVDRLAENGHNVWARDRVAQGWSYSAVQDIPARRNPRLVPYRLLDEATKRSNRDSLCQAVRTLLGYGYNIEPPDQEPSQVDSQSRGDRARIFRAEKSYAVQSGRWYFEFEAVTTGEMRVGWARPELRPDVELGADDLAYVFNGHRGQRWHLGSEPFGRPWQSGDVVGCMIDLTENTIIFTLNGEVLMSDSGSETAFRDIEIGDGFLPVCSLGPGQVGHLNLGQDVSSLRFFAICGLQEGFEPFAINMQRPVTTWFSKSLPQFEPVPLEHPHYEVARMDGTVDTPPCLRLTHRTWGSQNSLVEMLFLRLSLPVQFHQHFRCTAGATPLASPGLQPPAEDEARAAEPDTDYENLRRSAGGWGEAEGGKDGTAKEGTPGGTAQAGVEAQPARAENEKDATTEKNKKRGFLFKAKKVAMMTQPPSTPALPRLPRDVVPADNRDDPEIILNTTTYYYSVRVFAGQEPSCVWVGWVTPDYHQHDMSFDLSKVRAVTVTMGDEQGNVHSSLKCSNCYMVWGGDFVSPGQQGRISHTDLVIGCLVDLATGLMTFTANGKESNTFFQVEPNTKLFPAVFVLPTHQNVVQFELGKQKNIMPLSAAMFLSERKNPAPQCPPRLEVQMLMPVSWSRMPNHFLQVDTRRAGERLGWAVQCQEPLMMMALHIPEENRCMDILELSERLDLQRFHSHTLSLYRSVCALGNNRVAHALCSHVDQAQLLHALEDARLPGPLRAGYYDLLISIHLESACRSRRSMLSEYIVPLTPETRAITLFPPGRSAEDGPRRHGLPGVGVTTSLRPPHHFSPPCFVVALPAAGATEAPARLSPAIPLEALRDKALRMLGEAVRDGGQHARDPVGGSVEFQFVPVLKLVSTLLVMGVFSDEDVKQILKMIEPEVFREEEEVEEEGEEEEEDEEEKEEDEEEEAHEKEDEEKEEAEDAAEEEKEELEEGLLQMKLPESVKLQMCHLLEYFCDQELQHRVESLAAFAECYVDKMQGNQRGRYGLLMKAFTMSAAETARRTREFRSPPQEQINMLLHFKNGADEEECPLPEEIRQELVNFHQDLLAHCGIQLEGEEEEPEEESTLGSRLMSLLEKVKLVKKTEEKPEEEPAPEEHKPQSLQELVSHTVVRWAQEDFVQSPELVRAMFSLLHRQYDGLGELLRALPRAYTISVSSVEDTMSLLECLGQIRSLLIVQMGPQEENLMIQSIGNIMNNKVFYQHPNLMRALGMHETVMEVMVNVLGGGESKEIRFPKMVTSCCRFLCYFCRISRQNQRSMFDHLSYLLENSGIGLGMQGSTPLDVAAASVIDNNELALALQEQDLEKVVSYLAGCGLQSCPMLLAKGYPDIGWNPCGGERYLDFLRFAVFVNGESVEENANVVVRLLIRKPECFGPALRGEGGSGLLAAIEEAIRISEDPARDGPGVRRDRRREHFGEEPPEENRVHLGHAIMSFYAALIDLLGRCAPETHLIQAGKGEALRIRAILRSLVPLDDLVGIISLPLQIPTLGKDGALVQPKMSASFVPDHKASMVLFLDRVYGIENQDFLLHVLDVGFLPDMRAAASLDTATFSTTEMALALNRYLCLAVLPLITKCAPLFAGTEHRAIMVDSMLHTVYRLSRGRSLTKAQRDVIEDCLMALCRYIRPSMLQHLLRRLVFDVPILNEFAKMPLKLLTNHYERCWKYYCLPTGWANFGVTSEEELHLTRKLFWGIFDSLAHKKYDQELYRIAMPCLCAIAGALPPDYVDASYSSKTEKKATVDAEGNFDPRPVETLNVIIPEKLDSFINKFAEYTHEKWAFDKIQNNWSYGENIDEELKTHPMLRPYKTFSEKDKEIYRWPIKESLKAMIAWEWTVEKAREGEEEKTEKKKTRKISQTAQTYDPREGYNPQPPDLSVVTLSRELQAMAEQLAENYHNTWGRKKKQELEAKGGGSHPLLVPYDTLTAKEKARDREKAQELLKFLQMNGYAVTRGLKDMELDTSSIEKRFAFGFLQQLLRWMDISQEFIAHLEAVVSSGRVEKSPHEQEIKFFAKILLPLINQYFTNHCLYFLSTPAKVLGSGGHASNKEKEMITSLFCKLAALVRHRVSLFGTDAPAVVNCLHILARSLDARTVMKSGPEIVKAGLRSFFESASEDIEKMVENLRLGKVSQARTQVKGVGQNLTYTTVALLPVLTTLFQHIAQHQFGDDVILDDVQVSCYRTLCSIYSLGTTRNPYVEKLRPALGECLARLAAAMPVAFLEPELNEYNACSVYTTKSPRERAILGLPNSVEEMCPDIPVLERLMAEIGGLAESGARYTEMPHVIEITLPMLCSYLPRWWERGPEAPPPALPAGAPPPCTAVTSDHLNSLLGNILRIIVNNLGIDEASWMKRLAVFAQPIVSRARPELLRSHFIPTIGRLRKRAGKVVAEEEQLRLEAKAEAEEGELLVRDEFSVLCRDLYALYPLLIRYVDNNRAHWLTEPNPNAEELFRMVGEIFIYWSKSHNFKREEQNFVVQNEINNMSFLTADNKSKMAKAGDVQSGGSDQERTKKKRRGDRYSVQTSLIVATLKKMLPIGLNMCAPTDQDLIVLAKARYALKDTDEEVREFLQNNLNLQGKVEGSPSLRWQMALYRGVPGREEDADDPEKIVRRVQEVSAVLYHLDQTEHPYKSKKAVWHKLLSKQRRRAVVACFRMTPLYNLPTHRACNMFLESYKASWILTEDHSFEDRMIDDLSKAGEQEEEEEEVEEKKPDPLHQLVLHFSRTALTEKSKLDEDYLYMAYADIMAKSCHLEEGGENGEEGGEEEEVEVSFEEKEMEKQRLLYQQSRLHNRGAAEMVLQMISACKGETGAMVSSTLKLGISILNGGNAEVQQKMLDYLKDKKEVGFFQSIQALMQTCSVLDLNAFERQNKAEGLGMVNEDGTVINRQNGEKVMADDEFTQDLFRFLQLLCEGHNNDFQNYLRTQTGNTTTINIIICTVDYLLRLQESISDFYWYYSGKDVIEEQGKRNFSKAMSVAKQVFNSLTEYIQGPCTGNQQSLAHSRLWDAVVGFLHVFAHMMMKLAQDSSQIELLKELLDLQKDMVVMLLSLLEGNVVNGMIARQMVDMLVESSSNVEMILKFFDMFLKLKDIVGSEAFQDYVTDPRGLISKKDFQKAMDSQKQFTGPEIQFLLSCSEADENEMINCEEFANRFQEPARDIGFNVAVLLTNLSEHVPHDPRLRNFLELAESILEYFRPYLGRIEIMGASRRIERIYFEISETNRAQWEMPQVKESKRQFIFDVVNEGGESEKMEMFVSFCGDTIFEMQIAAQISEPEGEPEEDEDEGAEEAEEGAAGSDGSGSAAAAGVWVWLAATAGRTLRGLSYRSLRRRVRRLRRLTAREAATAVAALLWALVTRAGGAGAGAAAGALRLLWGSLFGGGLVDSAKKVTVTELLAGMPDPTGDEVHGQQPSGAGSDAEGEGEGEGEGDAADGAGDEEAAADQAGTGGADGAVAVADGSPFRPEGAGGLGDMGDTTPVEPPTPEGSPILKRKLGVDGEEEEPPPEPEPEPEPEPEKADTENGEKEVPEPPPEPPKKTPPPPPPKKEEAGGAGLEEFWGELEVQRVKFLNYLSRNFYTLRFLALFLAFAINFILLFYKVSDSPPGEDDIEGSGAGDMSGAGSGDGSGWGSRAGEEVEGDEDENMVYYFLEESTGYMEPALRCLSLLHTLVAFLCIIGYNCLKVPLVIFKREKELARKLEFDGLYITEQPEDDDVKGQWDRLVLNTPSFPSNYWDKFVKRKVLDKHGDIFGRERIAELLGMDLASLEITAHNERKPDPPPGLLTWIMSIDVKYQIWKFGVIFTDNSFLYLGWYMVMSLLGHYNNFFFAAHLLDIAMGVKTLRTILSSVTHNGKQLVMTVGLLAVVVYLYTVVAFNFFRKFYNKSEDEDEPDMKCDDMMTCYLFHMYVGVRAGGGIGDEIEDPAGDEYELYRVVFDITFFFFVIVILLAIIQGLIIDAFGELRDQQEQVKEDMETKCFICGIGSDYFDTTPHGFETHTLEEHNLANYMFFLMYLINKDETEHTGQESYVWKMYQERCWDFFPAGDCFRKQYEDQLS
T1 sequence (E9PZQ0 whole entry): as the sequence (E9PZQ0 whole entry E4242G) above, with G4242E counted along it

Row | Compound | t1/2act (rate of SR Ca^2+ release) (RyR1 [1]) | peak ΔF/F (Ca^2+ release) (RyR1 [1]; n=5) | t1/2act (rate of SR Ca^2+ release) (RyR1 [2]) | peak ΔF/F (Ca^2+ release) (RyR1 [2]; n=3) | ΔF/F (Ca^2+ release) (RyR1 [3]) | grip strength (in words) (Ryr1^m1Nisw/+ mice [4]) | muscle strength in hanging task (in words) (Ryr1^m1Nisw/+ mice [5]) | centrally located nuclei / muscle histology (H&E) [6] | Minutes to Contraction (Stand. Dev) ([7]; EMG recordings, electrically stimulated, PMA 50 nM, AICAR 500 μM, Glibenclamide 2 μM, 5HA 200 μM) | bath application time after which contractions were elicited ([7]; Glibenclamide 2 μM, 5HA 200 μM, n=6 for each) | explants showing contractions ([7]; after 1 hour bath application, n=6 for each) | resting membrane potential (in words) [8] | centrally located nuclei / muscle histology (H&E) ([6]; listed as Glyburide) | VREST phase (in words) (soleus muscle; RyR1^m1Nisw/+ soleus muscle, Glibenclamide 2 μM, or chronic 5.2% potassium diet) | VREST phase (in words) (soleus muscle; wild type muscle, low extracellular potassium / Tetanus, Glibenclamide 2 μM)
1 | Cc1cc(O)ccc1Cl [4-CmC, 4-chloro-m-cresol] | 2.2 ± 0.6 s | 1.4±0.1 | 6.5 ± 2.4 s | 1.2±0.1 | 0.1±0.0 |  |  |  |  |  |  |  |  |  | 
2 | CCOC(=O)[C@H](CCc1ccccc1)N[C@@H](C)C(=O)N1CCC[C@H]1C(=O)O [Enalapril] |  |  |  |  |  | increased grip strength | increased grip strength and muscle strength; also recorded: partial rescue of muscle strength | mild improvement in muscle histology |  |  |  |  |  |  | 
3 | COc1ccc(Cl)cc1C(=O)NCCc1ccc(S(=O)(=O)NC(=O)NC2CCCCC2)cc1 [Glibenclamide] |  |  |  |  |  | Increased grip and hanging strength | increased grip strength and muscle strength; also recorded: Increased grip and hanging strength |  | 67 (34) Minutes | 2 h | 50% | normalized the resting membrane potential | lack of centrally-located nuclei; also recorded: rescue the clinical and pathological manifestations of CCD; also recorded: significant reduction in the number of internal nuclei | rescued the phase 2 VREST to phase 1 | protected against phase 2 shifting from phase 1
